Measurements published in PubChem BioAssay (NCI).
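Step 1: Grow cells in 96-well plates. Step 2: Expose to compound for 48 hours at 5 concentrations. Step 3: Interpolate endpoints linearly; if unreached, use highest concentration. TGI: concentration producing complete growth inhibition.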

Assays:
Test in all cases: NCI-60 cell line screen, 48 h
KM12 colon = tested on: KM12 colon
SK-OV-3 ovarian = tested on: SK-OV-3 ovarian
HS 578T breast = tested on: HS 578T breast
HL-60(TB) leukemia = tested on: HL-60(TB) leukemia
A549 NSCLC = tested on: A549 NSCLC
HOP-62 NSCLC = tested on: HOP-62 NSCLC
HCT-116 colon = tested on: HCT-116 colon
RXF 393 renal = tested on: RXF 393 renal
MOLT-4 leukemia = tested on: MOLT-4 leukemia
SN12C renal = tested on: SN12C renal
A498 renal = tested on: A498 renal
HT29 colon = tested on: HT29 colon
MALME-3M melanoma = tested on: MALME-3M melanoma
COLO 205 colon = tested on: COLO 205 colon
MCF7 breast = tested on: MCF7 breast
MDA-MB-435 = tested on: MDA-MB-435
DU-145 prostate = tested on: DU-145 prostate
TK-10 renal = tested on: TK-10 renal
LOX IMVI melanoma = tested on: LOX IMVI melanoma
OVCAR-8 ovarian = tested on: OVCAR-8 ovarian
SK-MEL-28 melanoma = tested on: SK-MEL-28 melanoma
UO-31 renal = tested on: UO-31 renal
RPMI-8226 leukemia = tested on: RPMI-8226 leukemia
NCI-H226 lung = tested on: NCI-H226 lung
HOP-92 NSCLC = tested on: HOP-92 NSCLC
EKVX NSCLC = tested on: EKVX NSCLC
SF-268 CNS = tested on: SF-268 CNS
BT-549 breast = tested on: BT-549 breast
OVCAR-5 ovarian = tested on: OVCAR-5 ovarian
UACC-62 melanoma = tested on: UACC-62 melanoma
PC-3 prostate = tested on: PC-3 prostate
HCT-15 colon = tested on: HCT-15 colon
HCC-2998 colon = tested on: HCC-2998 colon
T-47D breast = tested on: T-47D breast
SF-539 CNS = tested on: SF-539 CNS
ACHN renal = tested on: ACHN renal
SNB-19 CNS = tested on: SNB-19 CNS
SK-MEL-5 melanoma = tested on: SK-MEL-5 melanoma
786-0 renal = tested on: 786-0 renal
MDA-N = tested on: MDA-N
CAKI-1 renal = tested on: CAKI-1 renal
NCI-H522 lung = tested on: NCI-H522 lung
OVCAR-3 ovarian = tested on: OVCAR-3 ovarian
SW-620 colon = tested on: SW-620 colon
U251 CNS = tested on: U251 CNS
M14 melanoma = tested on: M14 melanoma
K-562 leukemia = tested on: K-562 leukemia
NCI-H460 lung = tested on: NCI-H460 lung
SK-MEL-2 melanoma = tested on: SK-MEL-2 melanoma
SR leukemia = tested on: SR leukemia
UACC-257 melanoma = tested on: UACC-257 melanoma
IGROV1 ovarian = tested on: IGROV1 ovarian
CCRF-CEM leukemia = tested on: CCRF-CEM leukemia
SNB-75 CNS = tested on: SNB-75 CNS
NCI-H23 lung = tested on: NCI-H23 lung
OVCAR-4 ovarian = tested on: OVCAR-4 ovarian
MDA-MB-231 breast = tested on: MDA-MB-231 breast
NCI/ADR-RES ovarian = tested on: NCI/ADR-RES ovarian
SF-295 CNS = tested on: SF-295 CNS

Measured: TGI

CC(=NCC(=O)O)c1ccccc1
> 100 µM: KM12 colon | SK-OV-3 ovarian | HS 578T breast | HL-60(TB) leukemia | A549 NSCLC | HOP-62 NSCLC | HCT-116 colon | RXF 393 renal | MOLT-4 leukemia | SN12C renal | A498 renal | HT29 colon | MALME-3M melanoma | COLO 205 colon | MCF7 breast | MDA-MB-435 | DU-145 prostate | TK-10 renal | LOX IMVI melanoma | OVCAR-8 ovarian | SK-MEL-28 melanoma | UO-31 renal | RPMI-8226 leukemia | NCI-H226 lung | HOP-92 NSCLC | EKVX NSCLC | SF-268 CNS | BT-549 breast | OVCAR-5 ovarian | UACC-62 melanoma | PC-3 prostate | HCT-15 colon | HCC-2998 colon | T-47D breast | SF-539 CNS | ACHN renal | SNB-19 CNS | SK-MEL-5 melanoma | 786-0 renal | MDA-N | CAKI-1 renal | NCI-H522 lung | OVCAR-3 ovarian | SW-620 colon | U251 CNS | M14 melanoma | K-562 leukemia | NCI-H460 lung | SK-MEL-2 melanoma | SR leukemia | UACC-257 melanoma | IGROV1 ovarian | CCRF-CEM leukemia | SNB-75 CNS | NCI-H23 lung | OVCAR-4 ovarian | MDA-MB-231 breast | NCI/ADR-RES ovarian | SF-295 CNS
